Measured values taken from patent US12522601B2, “1,3,4-oxadiazole derivative compounds as histone deacetylase 6 inhibitor, and the pharmaceutical composition comprising the same” (CHONG KUN DANG PHARMACEUTICAL CORP., priority 2020, dated 2026).

Experiments:
[1] = molecular target: T1, human recombinant HDAC1 (Homo sapiens, UniProt Q13547); assay: In vitro HDAC enzyme activity inhibition assay, HDAC1 (HDAC Fluorimetric Drug Discovery Kit); format: biochemical; conditions: human recombinant HDAC1, Fluor de Lys-SIRT1 substrate 10 μM, 30° C. for 60 minutes
T1 construct: purchased Enzo Life Sciences, Inc. BML-SE456
In short: (§1)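 Both HDAC1 and HDAC6 (human recombinant, 0.3 μg) tested identically: 10 μM fluorogenic Fluor de Lys-SIRT1 substrate, reaction 60 min at 30° C, developer added for 30 min. IC50 calculated from Ex 360/Em 460 signal over 5-fold serial dilutions.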

[2] = molecular target: T2, human recombinant HDAC6 (Homo sapiens, UniProt Q9UBN7); assay: In vitro HDAC enzyme activity inhibition assay, HDAC6 (HDAC Fluorimetric Drug Discovery Kit); format: biochemical; conditions: for HDAC6 Selectivity (fold): HDAC6 versus HDAC1; for IC50: human recombinant HDAC6, same protocol as the HDAC1 test
T2 construct: purchased Calbiochem Inc. 382180
T2 sequence (Q9UBN7 1-1215): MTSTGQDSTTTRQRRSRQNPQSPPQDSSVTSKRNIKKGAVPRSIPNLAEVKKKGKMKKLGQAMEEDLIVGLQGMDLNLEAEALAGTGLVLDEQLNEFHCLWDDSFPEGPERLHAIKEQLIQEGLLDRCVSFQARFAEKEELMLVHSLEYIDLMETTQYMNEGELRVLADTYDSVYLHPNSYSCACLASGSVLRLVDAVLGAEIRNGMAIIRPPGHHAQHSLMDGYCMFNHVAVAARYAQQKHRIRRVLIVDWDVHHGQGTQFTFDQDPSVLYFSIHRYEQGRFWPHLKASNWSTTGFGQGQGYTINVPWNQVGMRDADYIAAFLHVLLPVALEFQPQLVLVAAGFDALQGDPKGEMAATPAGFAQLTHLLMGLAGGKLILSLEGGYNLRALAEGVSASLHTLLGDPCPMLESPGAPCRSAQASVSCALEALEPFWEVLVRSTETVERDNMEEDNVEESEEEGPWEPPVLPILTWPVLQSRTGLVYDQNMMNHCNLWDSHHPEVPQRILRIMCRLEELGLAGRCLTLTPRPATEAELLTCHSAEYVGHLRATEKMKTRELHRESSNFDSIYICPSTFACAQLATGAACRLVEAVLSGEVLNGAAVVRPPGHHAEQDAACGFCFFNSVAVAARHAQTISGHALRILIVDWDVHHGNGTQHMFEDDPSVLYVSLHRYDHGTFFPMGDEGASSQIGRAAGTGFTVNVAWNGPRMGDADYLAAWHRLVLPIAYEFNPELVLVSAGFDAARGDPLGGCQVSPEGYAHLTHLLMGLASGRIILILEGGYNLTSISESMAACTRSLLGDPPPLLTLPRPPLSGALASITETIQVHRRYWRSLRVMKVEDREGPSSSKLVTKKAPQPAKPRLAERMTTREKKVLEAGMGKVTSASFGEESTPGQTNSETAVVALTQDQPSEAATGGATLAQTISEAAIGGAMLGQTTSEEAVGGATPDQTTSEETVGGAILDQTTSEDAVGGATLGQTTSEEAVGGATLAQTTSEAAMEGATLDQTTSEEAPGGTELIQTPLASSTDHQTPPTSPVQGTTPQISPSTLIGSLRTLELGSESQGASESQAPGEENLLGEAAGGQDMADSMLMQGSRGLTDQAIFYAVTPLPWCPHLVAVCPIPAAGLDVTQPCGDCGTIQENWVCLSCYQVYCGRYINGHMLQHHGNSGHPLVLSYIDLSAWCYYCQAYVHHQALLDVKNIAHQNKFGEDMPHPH
In short: as §1

T1 sequence (Q13547 whole entry): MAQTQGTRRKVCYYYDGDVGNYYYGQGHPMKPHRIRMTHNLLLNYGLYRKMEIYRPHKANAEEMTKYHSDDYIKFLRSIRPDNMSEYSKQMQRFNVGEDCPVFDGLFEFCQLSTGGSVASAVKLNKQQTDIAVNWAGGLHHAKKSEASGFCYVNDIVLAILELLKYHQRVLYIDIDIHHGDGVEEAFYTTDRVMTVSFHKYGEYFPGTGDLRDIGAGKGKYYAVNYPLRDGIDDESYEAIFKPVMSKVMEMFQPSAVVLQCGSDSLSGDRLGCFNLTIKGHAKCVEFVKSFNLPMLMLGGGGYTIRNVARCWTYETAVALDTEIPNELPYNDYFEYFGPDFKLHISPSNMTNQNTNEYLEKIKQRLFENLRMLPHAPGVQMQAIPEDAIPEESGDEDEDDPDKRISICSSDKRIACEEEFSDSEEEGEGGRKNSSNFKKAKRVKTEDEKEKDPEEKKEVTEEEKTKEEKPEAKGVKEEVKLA

SMILES	IC50 [1] [nM]	HDAC6 Selectivity (fold) [2] [fold]	IC50 [2] [nM]
O=C(N1CCN(c2ncccn2)CC1)N(Cc1cn2ccc(-c3nnc(C(F)F)o3)cc2n1)c1ccccc1 [Compound 4049, N-((7-(5-(difluoromethyl)-1,3,4-oxadiazol-2-yl)imidazo[1,2-a]pyridin-2-yl)methyl)-N-phenyl-4-(pyrimidin-2-yl)piperazine-1-carboxamide]	> 50000	539	92.8
CN1CCN(C(=O)N(Cc2cn3ccc(-c4nnc(C(F)F)o4)cc3n2)c2cccc(F)c2)CC1 [Compound 4083, N-((7-(5-(difluoromethyl)-1,3,4-oxadiazol-2-yl)imidazo[1,2-a]pyridin-2-yl)methyl)-N-(3-fluorophenyl)-4-methylpiperazine-1-carboxamide]	> 50000	108	465
CCN1CCN(C(=O)N(Cc2cn3ccc(-c4nnc(C(F)F)o4)cc3n2)c2cccc(F)c2)CC1 [Compound 4084, N-((7-(5-(difluoromethyl)-1,3,4-oxadiazol-2-yl)imidazo[1,2-a]pyridin-2-yl)methyl)-4-ethyl-N-(3-fluorophenyl)piperazine-1-carboxamide]	> 50000	183	273
CC(C)N1CCN(C(=O)N(Cc2cn3ccc(-c4nnc(C(F)F)o4)cc3n2)c2cccc(F)c2)CC1 [Compound 4085, N-((7-(5-(difluoromethyl)-1,3,4-oxadiazol-2-yl)imidazo[1,2-a]pyridin-2-yl)methyl)-N-(3-fluorophenyl)-4-isopropylpiperazine-1-carboxamide]	> 50000	233	214
CC(CO)N1CCN(C(=O)N(Cc2cn3ccc(-c4nnc(C(F)F)o4)cc3n2)c2cccc(F)c2)CC1 (stereo not drawn) [Compound 4086, N-((7-(5-(difluoromethyl)-1,3,4-oxadiazol-2-yl)imidazo[1,2-a]pyridin-2-yl)methyl)-N-(3-fluorophenyl)-4-(1-hydroxypropan-2-yl)piperazine-1-carboxamide]	> 50000	249	201
O=C(N1CCN(C2CCC2)CC1)N(Cc1cn2ccc(-c3nnc(C(F)F)o3)cc2n1)c1cccc(F)c1 [Compound 4087, 4-cyclobutyl-N-((7-(5-(difluoromethyl)-1,3,4-oxadiazol-2-yl)imidazo[1,2-a]pyridin-2-yl)methyl)-N-(3-fluorophenyl)piperazine-1-carboxamide]	> 50000	214	233
O=C(N1CCN(C2COC2)CC1)N(Cc1cn2ccc(-c3nnc(C(F)F)o3)cc2n1)c1cccc(F)c1 [Compound 4088, N-((7-(5-(difluoromethyl)-1,3,4-oxadiazol-2-yl)imidazo[1,2-a]pyridin-2-yl)methyl)-N-(3-fluorophenyl)-4-(oxetan-3-yl)piperazine-1-carboxamide]	> 50000	156	320
O=C(N1CCN(C2CCCCC2)CC1)N(Cc1cn2ccc(-c3nnc(C(F)F)o3)cc2n1)c1cccc(F)c1 [Compound 4089, 4-cyclohexyl-N-((7-(5-(difluoromethyl)-1,3,4-oxadiazol-2-yl)imidazo[1,2-a]pyridin-2-yl)methyl)-N-(3-fluorophenyl)piperazine-1-carboxamide]	> 50000	113	443
O=C(N1CCN(C2CCOCC2)CC1)N(Cc1cn2ccc(-c3nnc(C(F)F)o3)cc2n1)c1cccc(F)c1 [Compound 4090, N-((7-(5-(difluoromethyl)-1,3,4-oxadiazol-2-yl)imidazo[1,2-a]pyridin-2-yl)methyl)-N-(3-fluorophenyl)-4-(tetrahydro-2H-pyran-4-yl)piperazine-1-carboxamide]	> 50000	216	232
O=C(N1CCN(C2CCC(F)(F)CC2)CC1)N(Cc1cn2ccc(-c3nnc(C(F)F)o3)cc2n1)c1cccc(F)c1 [Compound 4091, 4-(4,4-difluorocyclohexyl)-N-((7-(5-(difluoromethyl)-1,3,4-oxadiazol-2-yl)imidazo[1,2-a]pyridin-2-yl)methyl)-N-(3-fluorophenyl)piperazine-1-carboxamide]	> 50000	194	257
CC(=O)N1CCN(C(=O)N(Cc2cn3ccc(-c4nnc(C(F)F)o4)cc3n2)c2cccc(F)c2)CC1 [Compound 4092, 4-acetyl-N-((7-(5-(difluoromethyl)-1,3,4-oxadiazol-2-yl)imidazo[1,2-a]pyridin-2-yl)methyl)-N-(3-fluorophenyl)piperazine-1-carboxamide]	> 50000	187	267
CCC(=O)N1CCN(C(=O)N(Cc2cn3ccc(-c4nnc(C(F)F)o4)cc3n2)c2cccc(F)c2)CC1 [Compound 4093, N-((7-(5-(difluoromethyl)-1,3,4-oxadiazol-2-yl)imidazo[1,2-a]pyridin-2-yl)methyl)-N-(3-fluorophenyl)-4-propionylpiperazine-1-carboxamide]	> 50000	256	195
O=C(CO)N1CCN(C(=O)N(Cc2cn3ccc(-c4nnc(C(F)F)o4)cc3n2)c2cccc(F)c2)CC1 [Compound 4094, N-((7-(5-(difluoromethyl)-1,3,4-oxadiazol-2-yl)imidazo[1,2-a]pyridin-2-yl)methyl)-N-(3-fluorophenyl)-4-(2-hydroxyacetyl)piperazine-1-carboxamide]	> 50000	215	232
O=C(C1CCC1)N1CCN(C(=O)N(Cc2cn3ccc(-c4nnc(C(F)F)o4)cc3n2)c2cccc(F)c2)CC1 [Compound 4095, 4-(cyclobutanecarbonyl)-N-((7-(5-(difluoromethyl)-1,3,4-oxadiazol-2-yl)imidazo[1,2-a]pyridine-2-yl)methyl)-N-(3-fluorophenyl)piperazine-1-carboxamide]	> 50000	185	270
O=C(N1CCN(C(=O)C(F)(F)F)CC1)N(Cc1cn2ccc(-c3nnc(C(F)F)o3)cc2n1)c1cccc(F)c1 [Compound 4096, N-((7-(5-(difluoromethyl)-1,3,4-oxadiazol-2-yl)imidazo[1,2-a]pyridin-2-yl)methyl)-N-(3-fluorophenyl)-4-(2,2,2-trifluoroacetyl)piperazine-1-carboxamide]	> 50000	121	413
CS(=O)(=O)N1CCN(C(=O)N(Cc2cn3ccc(-c4nnc(C(F)F)o4)cc3n2)c2cccc(F)c2)CC1 [Compound 4097, N-((7-(5-(difluoromethyl)-1,3,4-oxadiazol-2-yl)imidazo[1,2-a]pyridin-2-yl)methyl)-N-(3-fluorophenyl)-4-(methylsulfonyl)piperazine-1-carboxamide]	> 50000	335	149
COC(=O)N1CCN(C(=O)N(Cc2cn3ccc(-c4nnc(C(F)F)o4)cc3n2)c2cccc(F)c2)CC1 [Compound 4098, methyl 4-(((7-(5-(difluoromethyl)-1,3,4-oxadiazol-2-yl)imidazo[1,2-a]pyridin-2-yl)methyl)(3-fluorophenyl)carbamoyl)piperazine-1-carboxylate]	> 50000	325	154
CN(C)C(=O)N1CCN(C(=O)N(Cc2cn3ccc(-c4nnc(C(F)F)o4)cc3n2)c2cccc(F)c2)CC1 [Compound 4099, N1-((7-(5-(difluoromethyl)-1,3,4-oxadiazol-2-yl)imidazo[1,2-a]pyridin-2-yl)methyl)-N1-(3-fluorophenyl)-N4,N4-dimethylpiperazine-1,4-dicarboxamide]	> 50000	360	139
